According to PubChem BioAssay (NCI):
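48-hour exposure; five concentrations; linearly interpolated endpoints. TGI: concentration producing complete growth inhibition.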

Key:
Assay in all cases: DTP human tumour cell line panel, 48 h
NCI-H460 lung = tested on: NCI-H460 lung
CAKI-1 renal = tested on: CAKI-1 renal
HCT-116 colon = tested on: HCT-116 colon
SF-539 CNS = tested on: SF-539 CNS
NCI-H23 lung = tested on: NCI-H23 lung
MCF7 breast = tested on: MCF7 breast
786-0 renal = tested on: 786-0 renal
SNB-75 CNS = tested on: SNB-75 CNS
U251 CNS = tested on: U251 CNS
UO-31 renal = tested on: UO-31 renal
RPMI-8226 leukemia = tested on: RPMI-8226 leukemia
SF-295 CNS = tested on: SF-295 CNS
HOP-92 NSCLC = tested on: HOP-92 NSCLC
SF-268 CNS = tested on: SF-268 CNS
MOLT-4 leukemia = tested on: MOLT-4 leukemia
OVCAR-4 ovarian = tested on: OVCAR-4 ovarian
SK-MEL-2 melanoma = tested on: SK-MEL-2 melanoma
SK-MEL-5 melanoma = tested on: SK-MEL-5 melanoma
EKVX NSCLC = tested on: EKVX NSCLC
T-47D breast = tested on: T-47D breast
UACC-257 melanoma = tested on: UACC-257 melanoma
CCRF-CEM leukemia = tested on: CCRF-CEM leukemia
SW-620 colon = tested on: SW-620 colon
MDA-MB-435 = tested on: MDA-MB-435
HCC-2998 colon = tested on: HCC-2998 colon
TK-10 renal = tested on: TK-10 renal
UACC-62 melanoma = tested on: UACC-62 melanoma
RXF 393 renal = tested on: RXF 393 renal
ACHN renal = tested on: ACHN renal
A498 renal = tested on: A498 renal
SK-OV-3 ovarian = tested on: SK-OV-3 ovarian
HL-60(TB) leukemia = tested on: HL-60(TB) leukemia
KM12 colon = tested on: KM12 colon
HOP-62 NSCLC = tested on: HOP-62 NSCLC
SR leukemia = tested on: SR leukemia
DU-145 prostate = tested on: DU-145 prostate
LOX IMVI melanoma = tested on: LOX IMVI melanoma
SK-MEL-28 melanoma = tested on: SK-MEL-28 melanoma
HS 578T breast = tested on: HS 578T breast
K-562 leukemia = tested on: K-562 leukemia
PC-3 prostate = tested on: PC-3 prostate
HCT-15 colon = tested on: HCT-15 colon
COLO 205 colon = tested on: COLO 205 colon
M14 melanoma = tested on: M14 melanoma
MDA-MB-231 breast = tested on: MDA-MB-231 breast
SNB-19 CNS = tested on: SNB-19 CNS
IGROV1 ovarian = tested on: IGROV1 ovarian
MALME-3M melanoma = tested on: MALME-3M melanoma
NCI-H226 lung = tested on: NCI-H226 lung
A549 NSCLC = tested on: A549 NSCLC
BT-549 breast = tested on: BT-549 breast
OVCAR-3 ovarian = tested on: OVCAR-3 ovarian
OVCAR-8 ovarian = tested on: OVCAR-8 ovarian
HT29 colon = tested on: HT29 colon
SN12C renal = tested on: SN12C renal
NCI-H522 lung = tested on: NCI-H522 lung
OVCAR-5 ovarian = tested on: OVCAR-5 ovarian
NCI/ADR-RES ovarian = tested on: NCI/ADR-RES ovarian

## CC1(O)Oc2ccc3ccccc3c2C=C1C(N)=O (stereo not given)
NCI-H460 lung
  TGI: > 100 µM
CAKI-1 renal
  TGI: > 100 µM
HCT-116 colon
  TGI: > 100 µM
SF-539 CNS
  TGI: > 100 µM
NCI-H23 lung
  TGI: > 100 µM
MCF7 breast
  TGI: > 100 µM
786-0 renal
  TGI: > 100 µM
SNB-75 CNS
  TGI: > 100 µM
U251 CNS
  TGI: > 100 µM
UO-31 renal
  TGI: > 100 µM
RPMI-8226 leukemia
  TGI: > 100 µM
SF-295 CNS
  TGI: > 100 µM
HOP-92 NSCLC
  TGI: > 100 µM
SF-268 CNS
  TGI: > 100 µM
MOLT-4 leukemia
  TGI: > 100 µM
OVCAR-4 ovarian
  TGI: > 100 µM
SK-MEL-2 melanoma
  TGI: > 100 µM
SK-MEL-5 melanoma
  TGI: > 100 µM
EKVX NSCLC
  TGI: > 100 µM
T-47D breast
  TGI: > 100 µM
UACC-257 melanoma
  TGI: > 100 µM
CCRF-CEM leukemia
  TGI: > 100 µM
SW-620 colon
  TGI: > 100 µM
MDA-MB-435
  TGI: > 100 µM
HCC-2998 colon
  TGI: > 100 µM
TK-10 renal
  TGI: > 100 µM
UACC-62 melanoma
  TGI: > 100 µM
RXF 393 renal
  TGI: > 100 µM
ACHN renal
  TGI: > 100 µM
A498 renal
  TGI: > 100 µM
SK-OV-3 ovarian
  TGI: > 100 µM
HL-60(TB) leukemia
  TGI: > 100 µM
KM12 colon
  TGI: > 100 µM
HOP-62 NSCLC
  TGI: > 100 µM
SR leukemia
  TGI: > 100 µM
DU-145 prostate
  TGI: > 100 µM
LOX IMVI melanoma
  TGI: > 100 µM
SK-MEL-28 melanoma
  TGI: > 100 µM
HS 578T breast
  TGI: > 100 µM
K-562 leukemia
  TGI: > 100 µM
PC-3 prostate
  TGI: > 100 µM
HCT-15 colon
  TGI: > 100 µM
COLO 205 colon
  TGI: > 100 µM
M14 melanoma
  TGI: > 100 µM
MDA-MB-231 breast
  TGI: 93.8 µM
SNB-19 CNS
  TGI: > 100 µM
IGROV1 ovarian
  TGI: > 100 µM

## COc1ccc(C(c2cc3c(cc2O)OCO3)N2CCOCC2)cc1OC (stereo not given)
NCI-H460 lung
  TGI: 71.9 µM
MALME-3M melanoma
  TGI: 25.7 µM
CAKI-1 renal
  TGI: 25.4 µM
HCT-116 colon
  TGI: 22.9 µM
SF-539 CNS
  TGI: 28.3 µM
NCI-H23 lung
  TGI: 15.9 µM
MCF7 breast
  TGI: > 100 µM
786-0 renal
  TGI: 23.1 µM
SNB-75 CNS
  TGI: 31.8 µM
U251 CNS
  TGI: 21.4 µM
UO-31 renal
  TGI: 25 µM
NCI-H226 lung
  TGI: 24.6 µM
SF-295 CNS
  TGI: 27.2 µM
HOP-92 NSCLC
  TGI: 32.8 µM
SF-268 CNS
  TGI: 25.5 µM
MOLT-4 leukemia
  TGI: 80.8 µM
OVCAR-4 ovarian
  TGI: 29 µM
SK-MEL-2 melanoma
  TGI: 32.5 µM
SK-MEL-5 melanoma
  TGI: 26.3 µM
A549 NSCLC
  TGI: 51.9 µM
EKVX NSCLC
  TGI: 36.7 µM
BT-549 breast
  TGI: 43.8 µM
OVCAR-3 ovarian
  TGI: 20.5 µM
OVCAR-8 ovarian
  TGI: 27.2 µM
T-47D breast
  TGI: 45.8 µM
HT29 colon
  TGI: 26 µM
UACC-257 melanoma
  TGI: 34.1 µM
SN12C renal
  TGI: 22.3 µM
SW-620 colon
  TGI: 14.4 µM
MDA-MB-435
  TGI: 23.4 µM
NCI-H522 lung
  TGI: 15.1 µM
TK-10 renal
  TGI: 26.1 µM
UACC-62 melanoma
  TGI: 19.9 µM
RXF 393 renal
  TGI: 58.2 µM
ACHN renal
  TGI: 23.5 µM
SK-OV-3 ovarian
  TGI: 28.7 µM
HL-60(TB) leukemia
  TGI: 79.8 µM
KM12 colon
  TGI: 24.9 µM
HOP-62 NSCLC
  TGI: 29.1 µM
DU-145 prostate
  TGI: 24.4 µM
LOX IMVI melanoma
  TGI: 16.5 µM
SK-MEL-28 melanoma
  TGI: 32.9 µM
OVCAR-5 ovarian
  TGI: 21.5 µM
HS 578T breast
  TGI: 19.9 µM
K-562 leukemia
  TGI: 69.4 µM
NCI/ADR-RES ovarian
  TGI: 20 µM
PC-3 prostate
  TGI: 25.7 µM
HCT-15 colon
  TGI: 15.8 µM
COLO 205 colon
  TGI: 28.8 µM
M14 melanoma
  TGI: 24.9 µM
MDA-MB-231 breast
  TGI: 15.8 µM
SNB-19 CNS
  TGI: 30.4 µM
IGROV1 ovarian
  TGI: 29.6 µM
